Values of other authors as cited in US12447129B2, “Solid dosage form production” (University of Lancashire, priority 2014, dated 2025).

Tests used:
[1] = plasticiser alone; input to the calculation
[2] = at 25° C.

Row | Tg (K) plasticiser [1] | water sol. [2] | SMILES
1 | 203.55 K | – | CCOC(=O)CC(O)(CC(=O)OCC)C(=O)OCC [TEC]
2 | 193.7 K | – | CC(=O)OCC(COC(C)=O)OC(C)=O [Triacitin]
3 | – | 7360 mg/L | Cn1c(=O)c2[nH]cnc2n(C)c1=O [theophylline]
